Source: patent publication US20260042731A1, “(2,4-DICHLOROPHENOXY)ACETIC ACID ANALOGS” (CORTEVA AGRISCIENCE LLC, priority 2022, published 2026)
Read-outs that look alike come from different tables or passages of the source.

Tests used:
[1] = system: Chenopodium album (CHEAL), common lambsquarters; test: Postemergence herbicide evaluation, growth of Chenopodium album (CHEAL); format: in vivo; conditions: Chenopodium album, post-emergence, read-out: Ave. CHEAL
[2] = system: Abutilon theophrasti (ABUTH), velvetleaf; test: Postemergence herbicide evaluation, growth of Abutilon theophrasti (ABUTH); format: in vivo; conditions: Abutilon theophrasti, post-emergence, read-out: AVE. ABUTH
[3] = system: glyphosate resistant Conyza canadensis (L.) (ERICA), horseweed; test: Postemergence herbicide evaluation, growth of Conyza canadensis (ERICA); format: in vivo; conditions: Erigeron canadensis, post-emergence, read-out: Ave. ERICA
[4] = Volatility of compounds measured by thermogravimetric analysis (TGA); format: physicochemical
[5] = system: Ambrosia artemisiifolia (AMBEL), common ragweed; test: Postemergence herbicide evaluation, growth of Ambrosia artemisiifolia (AMBEL); format: in vivo; conditions: Ambrosia artemisiifolia, post-emergence, read-out: AVE. AMBEL
[6] = system: Amaranthus rudis (AMATA), tall water hemp; test: Postemergence herbicide evaluation, growth of Amaranthus rudis (AMATA); format: in vivo; conditions: Amaranthus tuberculatus, post-emergence, read-out: Ave. AMATA
[7] = system: weeds (ABUTH, AMATA, AMBEL, CHEAL, ERICA); test: Postemergence herbicide evaluation, overall average % weed control across ABUTH, AMATA, AMBEL, CHEAL, ERICA; format: in vivo; conditions: post-emergence, average over the five weeds, read-out: Overall Ave % Weed Control; for pest or weed control at 280 g/ha: 280 g ae/ha; for pest or weed control at 560 g/ha: 560 g ae/ha
[8] = 168 h, 280 g ae/ha, 7 DAA, percent reduction in plant size relative to untreated control
[9] = 168 h, 560 g ae/ha, 7 DAA, percent reduction in plant size relative to untreated control
[10] = 336 h, 280 g ae/ha, 14 DAA, percent reduction in plant size relative to untreated control
[11] = 336 h, 560 g ae/ha, 14 DAA, percent reduction in plant size relative to untreated control
[12] = 504 h, 280 g ae/ha, 21 DAA, percent reduction in plant size relative to untreated control
[13] = 504 h, 560 g ae/ha, 21 DAA, percent reduction in plant size relative to untreated control

**Q.** For `N/C(=N\OC(=O)COc1ccc(Cl)cc1Cl)c1ccc(/C(N)=N/OC(=O)COc2ccc(Cl)cc2Cl)cc1` [Compound B5, (1,4)—N°1, N°4-Bis(2-(2,4-dichlorophenoxy)acetoxy)terephthalimidamide], which pest or weed control at 280 g/ha [1, 8] is on record?
**A.** 15%

**Q.** And the pest or weed control at 560 g/ha [1, 9]?
**A.** 13%

**Q.** What about the pest or weed control at 280 g/ha [1, 10] of the same molecule?
**A.** 20%

**Q.** What about the pest or weed control at 560 g/ha [1, 11] of the same molecule?
**A.** 15%

**Q.** What about the pest or weed control at 280 g/ha [1, 12] of the same molecule?
**A.** 40%

**Q.** And the pest or weed control at 560 g/ha [1, 13]?
**A.** 13%

**Q.** And the pest or weed control at 280 g/ha [2, 8]?
**A.** 0%

**Q.** And the pest or weed control at 560 g/ha [2, 9]?
**A.** 3%

**Q.** What about the pest or weed control at 280 g/ha [2, 10] of the same molecule?
**A.** 10%

**Q.** What about the pest or weed control at 560 g/ha [2, 11] of the same molecule?
**A.** 3%

**Q.** What about the pest or weed control at 280 g/ha [2, 12] of the same molecule?
**A.** 10%

**Q.** And the pest or weed control at 560 g/ha [2, 13]?
**A.** 0%

**Q.** What about the pest or weed control at 280 g/ha [3, 8] of the same molecule?
**A.** 5%

**Q.** And the pest or weed control at 560 g/ha [3, 9]?
**A.** 25%

**Q.** What about the pest or weed control at 280 g/ha [3, 10] of the same molecule?
**A.** 30%

**Q.** And the pest or weed control at 560 g/ha [3, 11]?
**A.** 35%

**Q.** What about the pest or weed control at 280 g/ha [3, 12] of the same molecule?
**A.** 15%

**Q.** What about the pest or weed control at 560 g/ha [3, 13] of the same molecule?
**A.** 28%

**Q.** And the “TGA Data (rate of weight loss, volatility)” value [4]?
**A.** 0.1 µg/min

**Q.** And the pest or weed control at 280 g/ha [5, 8]?
**A.** 18%

**Q.** What about the pest or weed control at 560 g/ha [5, 9] of the same molecule?
**A.** 15%

**Q.** And the pest or weed control at 280 g/ha [5, 10]?
**A.** 8%

**Q.** What about the pest or weed control at 560 g/ha [5, 11] of the same molecule?
**A.** 15%

**Q.** What about the pest or weed control at 280 g/ha [5, 12] of the same molecule?
**A.** 5%

**Q.** What about the pest or weed control at 560 g/ha [5, 13] of the same molecule?
**A.** 18%

**Q.** What about the pest or weed control at 280 g/ha [6, 8] of the same molecule?
**A.** 25%

**Q.** What about the pest or weed control at 560 g/ha [6, 9] of the same molecule?
**A.** 25%

**Q.** And the pest or weed control at 280 g/ha [6, 10]?
**A.** 0%

**Q.** And the pest or weed control at 560 g/ha [6, 11]?
**A.** 18%

**Q.** And the pest or weed control at 280 g/ha [6, 12]?
**A.** 15%

**Q.** And the pest or weed control at 560 g/ha [6, 13]?
**A.** 33%

**Q.** What about the pest or weed control at 280 g/ha ([7]; 168 h, 7 DAA) of the same molecule?
**A.** 13%

**Q.** What about the pest or weed control at 560 g/ha ([7]; 168 h, 7 DAA) of the same molecule?
**A.** 16%

**Q.** What about the pest or weed control at 280 g/ha ([7]; 336 h, 14 DAA) of the same molecule?
**A.** 14%

**Q.** What about the pest or weed control at 560 g/ha ([7]; 336 h, 14 DAA) of the same molecule?
**A.** 17%

**Q.** And the pest or weed control at 280 g/ha ([7]; 504 h, 21 DAA)?
**A.** 17%

**Q.** And the pest or weed control at 560 g/ha ([7]; 504 h, 21 DAA)?
**A.** 18%

**Q.** Which results are given for `O=C(COc1ccc(Cl)cc1Cl)ON1C(=O)c2ccccc2C1=O` [Compound A15, 1,3-Dioxoisoindolin-2-yl 2-(2,4-dichlorophenoxy)acetate]?
**A.** pest or weed control at 280 g/ha [1, 8]: 68%; pest or weed control at 560 g/ha [1, 9]: 70%; pest or weed control at 280 g/ha [1, 10]: 73%; pest or weed control at 560 g/ha [1, 11]: 70%; pest or weed control at 280 g/ha [1, 12]: 80%; pest or weed control at 560 g/ha [1, 13]: 75%; pest or weed control at 280 g/ha [2, 8]: 78%; pest or weed control at 560 g/ha [2, 9]: 85%; pest or weed control at 280 g/ha [2, 10]: 83%; pest or weed control at 560 g/ha [2, 11]: 95%; pest or weed control at 280 g/ha [2, 12]: 88%; pest or weed control at 560 g/ha [2, 13]: 99%; pest or weed control at 280 g/ha [3, 8]: 68%; pest or weed control at 560 g/ha [3, 9]: 65%; pest or weed control at 280 g/ha [3, 10]: 78%; pest or weed control at 560 g/ha [3, 11]: 88%; pest or weed control at 280 g/ha [3, 12]: 88%; pest or weed control at 560 g/ha [3, 13]: 95%; TGA Data (rate of weight loss, volatility) [4]: 0.1 µg/min; pest or weed control at 280 g/ha [5, 8]: 73%; pest or weed control at 560 g/ha [5, 9]: 75%; pest or weed control at 280 g/ha [5, 10]: 95%; pest or weed control at 560 g/ha [5, 11]: 88%; pest or weed control at 280 g/ha [5, 12]: 98%; pest or weed control at 560 g/ha [5, 13]: 95%; pest or weed control at 280 g/ha [6, 8]: 73%; pest or weed control at 560 g/ha [6, 9]: 73%; pest or weed control at 280 g/ha [6, 10]: 82%; pest or weed control at 560 g/ha [6, 11]: 78%; pest or weed control at 280 g/ha [6, 12]: 84%; pest or weed control at 560 g/ha [6, 13]: 83%; pest or weed control at 280 g/ha ([7]; 168 h, 7 DAA): 72%; pest or weed control at 560 g/ha ([7]; 168 h, 7 DAA): 74%; pest or weed control at 280 g/ha ([7]; 336 h, 14 DAA): 82%; pest or weed control at 560 g/ha ([7]; 336 h, 14 DAA): 84%; pest or weed control at 280 g/ha ([7]; 504 h, 21 DAA): 87%; pest or weed control at 560 g/ha ([7]; 504 h, 21 DAA): 89%

**Q.** Which pest or weed control at 280 g/ha ([1]; 168 h) does the source give for `O=C(COc1ccc(Cl)cc1Cl)Nc1ccc(Cl)cc1` [Compound D6, N-(4-Chlorophenyl)-2-(2,4-dichlorophenoxy)acetamide] here?
**A.** 60%

**Q.** And the pest or weed control at 560 g/ha ([1]; 168 h)?
**A.** 73%

**Q.** And the pest or weed control at 280 g/ha ([1]; 336 h)?
**A.** 65%

**Q.** And the pest or weed control at 560 g/ha ([1]; 336 h)?
**A.** 75%

**Q.** And the pest or weed control at 280 g/ha ([1]; 504 h)?
**A.** 68%

**Q.** What about the pest or weed control at 560 g/ha ([1]; 504 h) of the same molecule?
**A.** 68%

**Q.** And the pest or weed control at 280 g/ha ([2]; 168 h)?
**A.** 50%

**Q.** What about the pest or weed control at 560 g/ha ([2]; 168 h) of the same molecule?
**A.** 60%

**Q.** And the pest or weed control at 280 g/ha ([2]; 336 h)?
**A.** 33%

**Q.** And the pest or weed control at 560 g/ha ([2]; 336 h)?
**A.** 58%

**Q.** And the pest or weed control at 280 g/ha ([2]; 504 h)?
**A.** 35%

**Q.** What about the pest or weed control at 560 g/ha ([2]; 504 h) of the same molecule?
**A.** 53%

**Q.** And the pest or weed control at 280 g/ha ([3]; 168 h)?
**A.** 65%

**Q.** And the pest or weed control at 560 g/ha ([3]; 168 h)?
**A.** 60%

**Q.** What about the pest or weed control at 280 g/ha ([3]; 336 h) of the same molecule?
**A.** 83%

**Q.** What about the pest or weed control at 560 g/ha ([3]; 336 h) of the same molecule?
**A.** 78%

**Q.** And the pest or weed control at 280 g/ha ([3]; 504 h)?
**A.** 83%

**Q.** And the pest or weed control at 560 g/ha ([3]; 504 h)?
**A.** 75%

**Q.** What about the “TGA Data (rate of weight loss, volatility)” value [4] of the same molecule?
**A.** 0.02 µg/min

**Q.** What about the pest or weed control at 280 g/ha ([5]; 168 h) of the same molecule?
**A.** 58%

**Q.** And the pest or weed control at 560 g/ha ([5]; 168 h)?
**A.** 58%

**Q.** And the pest or weed control at 280 g/ha ([5]; 336 h)?
**A.** 78%

**Q.** And the pest or weed control at 560 g/ha ([5]; 336 h)?
**A.** 68%

**Q.** And the pest or weed control at 280 g/ha ([5]; 504 h)?
**A.** 88%

**Q.** And the pest or weed control at 560 g/ha ([5]; 504 h)?
**A.** 63%

**Q.** What about the pest or weed control at 280 g/ha ([6]; 168 h) of the same molecule?
**A.** 68%

**Q.** What about the pest or weed control at 560 g/ha ([6]; 168 h) of the same molecule?
**A.** 63%

**Q.** What about the pest or weed control at 280 g/ha ([6]; 336 h) of the same molecule?
**A.** 84%

**Q.** What about the pest or weed control at 560 g/ha ([6]; 336 h) of the same molecule?
**A.** 70%

**Q.** And the pest or weed control at 280 g/ha ([6]; 504 h)?
**A.** 80%

**Q.** And the pest or weed control at 560 g/ha ([6]; 504 h)?
**A.** 65%

**Q.** And the pest or weed control at 280 g/ha ([7]; 168 h, 7 DAA)?
**A.** 60%

**Q.** And the pest or weed control at 560 g/ha ([7]; 168 h, 7 DAA)?
**A.** 63%

**Q.** And the pest or weed control at 280 g/ha ([7]; 336 h, 14 DAA)?
**A.** 68%

**Q.** And the pest or weed control at 560 g/ha ([7]; 336 h, 14 DAA)?
**A.** 70%

**Q.** And the pest or weed control at 280 g/ha ([7]; 504 h, 21 DAA)?
**A.** 71%

**Q.** And the pest or weed control at 560 g/ha ([7]; 504 h, 21 DAA)?
**A.** 65%
